From patent publication US20230399368A1, “CARRIER PEPTIDE FRAGMENT AND USE THEREOF” (TOAGOSEI CO., LTD., priority 2020, published 2023)
“Also recorded” adds a separate entry of the source. FAM = fluorescent dye FAM

Test system: HeLa cells
Assay: Evaluation of the cell membrane permeability by flow cytometry (FAM fluorescence) in HeLa cell culture
Format: cell-based, human
Conditions: for MFI (mean fluorescent intensity): 10 μM in culture medium, 0.5% DMSO, 20 hours incubation at 37° C., detector FL2, mean value of triplicate; for introduction of the fluorescent dye (FAM) into the cytoplasm, shift of the flow cytometry histogram on the X-axis (FIG. 1): compared with Example 3 (only FAM) or Example 2
Method: The cell membrane permeability of sample 1 and sample 2 was evaluated using HeLa cells (an established cell line derived from human cervical cancer cells) as the eukaryotic cells.
HeLa cells were cultured on DMEM (Dulbecco's modified Eagle's medium (Cat. No. 043-30085, from FUJIFILM Wako Pure Chemical Corporation)) containing 10% FBS (fetal bovine serum), which is a general culture medium.
The HeLa cells attached to the culture plate were washed with PBS, a 0.25% trypsin/EDTA solution was then added, and incubation was carried out for 3 minutes at 37° C. After this incubation, the aforementioned DMEM containing 10% FBS was added and the trypsin was inactivated, and the cells were then sedimented by carrying out centrifugal separation for 5 minutes at 150×g. The supernatant produced by the centrifugal separation was removed, and the aforementioned DMEM containing 10% FBS was added to the sediment (cell pellet) to prepare a cell suspension containing approximately 1×10^5 cells/mL. The cells were seeded (approximately 2×10^5 cells/well) by the addition of 2 mL of this cell suspension to the wells of a commercial 6-well plate (Iwaki). The cells were attached to the well bottom by culture for 3 hours at 37° C. under the condition of 5% CO2. In order to perform the evaluation of the cell membrane permeability in triplicate, the cells were seeded to three wells for the test of Example 1 and the following procedure was performed on each well.
The 2 mM sample solution 1 was then diluted with the aforementioned DMEM containing 10% FBS to prepare a sample solution 1 in which the sample 1 concentration was 20 μM. After the aforementioned 3-hour culture, 1 mL of the culture supernatant was removed from the well, followed by the addition to the well of 1 mL of the 20 μM sample solution 1 (i.e., the concentration of sample 1 in the culture medium in the well was brought to 10 μM and the DMSO concentration was brought to 0.5%). The cells were incubated for 20 hours at 37° C. under the condition of 5% CO2. After this 20-hour incubation, the culture supernatant was removed from the well and the cells in the well were washed twice with 1 mL PBS. 200 μL of a 0.25% trypsin/EDTA solution was then added to the well and incubation was carried out for 3 minutes at 37° C. After this incubation, the trypsin was inactivated by the addition of 400 μL of the aforementioned DMEM containing 10% FBS to the well, and the cells were subsequently recovered by transferring the cell suspension in the well to a tube. The well was then washed by the further addition of 600 μL PBS to the well. The cells that had remained in the well were recovered to the tube by transferring the PBS in the well to the tube. Centrifugal separation was run on this tube for 5 minutes using conditions of 4° C. and 210×g. After the centrifugal separation, the supernatant was removed, the sediment (cell pellet) was suspended (washed) with 1 mL of PBS, and centrifugal separation was carried out using the same conditions as before. After this procedure had been performed twice, the supernatant was removed to obtain cells (cell pellet) that had been cultured on a sample 1-containing culture medium.
The cell membrane permeability of sample 1 was evaluated using the resulting cells (cell pellet) and a flow cytometer. An On-Chip Flow Cytometer (On-chip Biotechnologies Co., Ltd.) was used for the flow cytometer.
For this analysis, the cell pellet obtained as described above was suspended in 50 μL PBS. To this suspension was added 50 μL of Sample Buffer 2× for use with the indicated flow cytometer to prepare a cell suspension for submission to analysis.
Gating was performed using this flow cytometer based on forward scatter (FSC) and side scatter (SSC); the gating was set for the cell population that was the target of the analysis; and the fluorescent intensity was measured for the cell population within this gating. The analysis was performed so this cell population reached at least 5,000 or more. […]

Substance | MFI (mean fluorescent intensity) | introduction of the fluorescent dye (FAM) into the cytoplasm, shift of the flow cytometry histogram on the X-axis (FIG. 1) (10 μM, 20 hours incubation) | efficiency (cell membrane permeability) compared using the MFI, Example 1 versus Example 2 (10 μM, 20 hours incubation, ratio of MFI of Table 3)
5(6)-carboxyfluorescein [Example 3, reference compound] | 6 |  | 
FAM-KKRTLRKNDRKKR-CONH2 ({FAM}-KKRTLRKNDRKKR-NH2) [Example 2, reference compound] | 15.5 | more efficiently introduced | 
FAM-MAPRGFSCLLLLTSEIDLPVKRRA-COOH ({FAM}-MAPRGFSCLLLLTSEIDLPVKRRA-OH; listed as Homo sapiens) [Example 1] | 33.7 | more efficiently introduced; also recorded: shifted more to the right on the X-axis than was the histogram for Example 2 | approximately twice as high
